Test results taken from ChEMBL document CHEMBL1201862, “PubChem BioAssay data set” (2004).
Activity calls are given as the source filed them.

Assays:
[1] = intracellular Trypanosoma cruzi inhibitors in host cells – cell-based, plate reader, cherry-pick samples, set 3, dose response (AID 651818); format: functional;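 further: compounds incubated with infected cells for about four days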
Cytochrome P450 2C9 = Cytochrome P450 2C9 (Homo sapiens, UniProt P11712)
[2] = target: FAD-linked sulfhydryl oxidase ALR (Homo sapiens, UniProt P55789); test: ALR-catalysed DTT oxidation blockers – biochemical, H2O2 detection, luminescence, cherry-pick, dose response (AID 493248)
H9c2 = test: cells; format: functional, cell-based; settings: Rattus norvegicus, H9c2, Myocardium
[3] = blockers of HIV-1 ZM109 envelope-driven cell-cell fusion – HeLa effector, CEM target cells, luciferase, cherry-pick, dose response (AID 652058); format: functional, cell-based;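 further: luciferase signal from HIV-1 Env mediated cell-cell fusion of effector and target cells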
[4] = blockers of HIV-1 envelope-mediated cell-cell fusion – cherry-pick, dose response (AID 652057); format: functional, cell-based
[5] = HIV-1 AD8 envelope cell-cell fusion blockers – cherry-pick, dose response (AID 652062); format: functional, cell-based;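 further: luciferase signal from cell-cell fusion driven by HIV-1 clade B AD8 Env; potency is for inhibitors of fusion seen as a drop in luminescence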
Cytochrome P450 1A2 = target: T1, Cytochrome P450 1A2 (Homo sapiens, UniProt P05177);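 further: PubChem cytochrome P450 panel assay, CYP1A2 panel member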
T1 sequence (P05177 whole entry): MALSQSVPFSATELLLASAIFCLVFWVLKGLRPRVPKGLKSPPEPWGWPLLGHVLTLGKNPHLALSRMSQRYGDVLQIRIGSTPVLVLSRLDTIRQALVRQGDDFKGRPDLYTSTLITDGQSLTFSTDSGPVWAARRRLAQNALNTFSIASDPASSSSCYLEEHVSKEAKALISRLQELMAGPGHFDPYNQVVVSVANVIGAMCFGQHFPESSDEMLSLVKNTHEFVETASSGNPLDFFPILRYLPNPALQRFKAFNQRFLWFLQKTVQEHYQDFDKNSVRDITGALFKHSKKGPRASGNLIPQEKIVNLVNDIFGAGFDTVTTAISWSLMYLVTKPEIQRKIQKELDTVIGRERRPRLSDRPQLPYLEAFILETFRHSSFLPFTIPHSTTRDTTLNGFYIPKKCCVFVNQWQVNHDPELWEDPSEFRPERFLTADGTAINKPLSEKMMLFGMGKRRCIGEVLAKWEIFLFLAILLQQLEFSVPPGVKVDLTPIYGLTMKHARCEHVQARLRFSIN

[6] = viability of uninfected HEp-2 cells – cell-based, HTS, cytotoxicity control for RSV inhibitor project, dose response (AID 2410); format: functional; settings: human respiratory syncytial virus
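Wherever IC50 is given: confirmatory concentration-response retest of ultra-high-throughput screening hits for modulation of myocardial damage; cell death induced by hydrogen peroxide oxidative stress; compound pretreatment for 60 min then peroxide exposure for 2 h; potency is for protecting the cells against peroxide damage rather than for killing them.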

Cytochrome P450 2C9, sequence (P11712 whole entry): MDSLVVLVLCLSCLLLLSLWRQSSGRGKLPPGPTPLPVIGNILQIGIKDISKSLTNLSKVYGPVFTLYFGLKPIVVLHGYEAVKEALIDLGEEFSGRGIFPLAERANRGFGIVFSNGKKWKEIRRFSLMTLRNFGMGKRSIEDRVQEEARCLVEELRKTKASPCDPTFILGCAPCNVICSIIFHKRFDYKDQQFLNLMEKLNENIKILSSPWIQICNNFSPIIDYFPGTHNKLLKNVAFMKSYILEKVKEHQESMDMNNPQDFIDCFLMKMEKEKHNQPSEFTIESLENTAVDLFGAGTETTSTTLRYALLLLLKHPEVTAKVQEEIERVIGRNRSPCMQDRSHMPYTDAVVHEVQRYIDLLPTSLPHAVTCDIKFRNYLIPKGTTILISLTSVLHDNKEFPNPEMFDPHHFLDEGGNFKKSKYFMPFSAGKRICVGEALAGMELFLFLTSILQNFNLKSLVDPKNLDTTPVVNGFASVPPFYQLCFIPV
FAD-linked sulfhydryl oxidase ALR, sequence (P55789 whole entry): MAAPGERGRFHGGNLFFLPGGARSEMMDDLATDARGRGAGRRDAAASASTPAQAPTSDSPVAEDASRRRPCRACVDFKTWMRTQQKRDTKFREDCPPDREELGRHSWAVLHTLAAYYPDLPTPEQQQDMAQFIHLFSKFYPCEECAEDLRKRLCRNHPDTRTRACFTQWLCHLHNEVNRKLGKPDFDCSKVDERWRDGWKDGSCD

## C[C@H](CO)N1C[C@H](C)[C@@H](CN(C)Cc2ccc(Cl)c(Cl)c2)Oc2c(NC(=O)c3ccncc3)cccc2C1=O
[1]
  AC50: 0.08 µM (active)

## COc1cc(C)c(Br)cc1S(=O)(=O)NCc1ccccc1
Cytochrome P450 2C9
  AC50: inconclusive

## CC(=O)N1CCN=C1SCc1cccc(F)c1
[2]
  AC50: 6.74 µM (active)

## O=C1Nc2cnc(Cl)nc2Nc2ccccc21
H9c2
  IC50: 18.7 µM (active)

## CCOC(=O)c1cc2c(=O)n3cccc(C)c3nc2n(CCCOC)/c1=N\C(=O)c1cccnc1
H9c2
  IC50: > 79 µM (inactive)

## CS/C(=N\S(=O)(=O)c1ccccc1)c1ccccc1
H9c2
  IC50: > 79 µM (inactive)

## C[C@H]1CN([C@@H](C)CO)C(=O)Cc2cc(N(C)C)ccc2O[C@H]1CN(C)Cc1ccc(C(=O)Nc2ccccc2N)cc1
[1]
  AC50: 1.93 µM (active)

## C[C@H](CO)N1C[C@H](C)[C@H](CN(C)Cc2ccc(Cl)c(Cl)c2)Oc2c(NC(=O)CCCCCC(=O)Nc3ccccc3N)cccc2C1=O
[1]
  AC50: 1.65 µM (active)

## C[C@H]1CN([C@@H](C)CO)C(=O)Cc2cc(NC(=O)C3CCCCC3)ccc2O[C@@H]1CN(C)Cc1ccc2c(c1)OCO2
[1]
  AC50: 2.81 µM (active)

## C[C@@H]1CCCCO[C@@H](CN(C)C(=O)Nc2ccc(C(F)(F)F)cc2)[C@@H](C)CN([C@H](C)CO)C(=O)c2cc(NC(=O)Nc3ccc(F)cc3)ccc2O1
[1]
  AC50: 4.68 µM (active)

## Cc1ccc(S(=O)(=O)Nc2ccc3c(c2)CC(=O)N([C@H](C)CO)C[C@@H](C)[C@@H](CN(C)S(=O)(=O)c2ccc(C)cc2)O3)cc1
[1]
  AC50: 4.11 µM (active)

## C[C@H](CO)N1C[C@H](C)[C@H](CN(C)C(=O)Nc2ccc(F)cc2)Oc2ncc(C#Cc3ccc(C(F)(F)F)cc3)cc2C1=O
[1]
  AC50: 2.59 µM (active)

## COc1ccc([Si](C)(C)[C@@H]2[C@@H](CCO)O[C@]3(C(=O)N4c5c(cc(OC)cc53)C(C)=CC4(C)C)[C@H]2C)cc1
[3]
  AC50: 17.2 µM (active)
[4]
  AC50: 11.8 µM (active)
[5]
  AC50: 16.8 µM (active)

## C[C@@H]1CN([C@H](C)CO)C(=O)Cc2cc(NC(=O)Nc3ccc(C(F)(F)F)cc3)ccc2O[C@@H]1CN(C)Cc1ccncc1
[1]
  AC50: 2.05 µM (active)

## C[C@@H]1CN([C@H](C)CO)C(=O)Cc2cc(NC(=O)Nc3ccc(C(F)(F)F)cc3)ccc2O[C@H]1CN(C)Cc1ccc(C(F)(F)F)cc1
[1]
  AC50: 6.59 µM (active)

## Cc1noc(C)c1S(=O)(=O)N(C)C[C@@H]1Oc2ccc(NC(=O)NC3CCCCC3)cc2CC(=O)N([C@@H](C)CO)C[C@@H]1C
[3]
  AC50: 7.36 µM (active)
[4]
  AC50: 9.11 µM (active)
[5]
  AC50: 5.37 µM (active)

## Cc1[nH]n(-c2ccccc2)c(=O)c1CCOC(=O)c1cccc(C(F)(F)F)c1
Cytochrome P450 1A2
  AC50: 22.4 µM (inconclusive)
Cytochrome P450 2C9
  AC50: inconclusive

## Sc1nnc(-c2ccccn2)n1/N=C/c1ccc(-c2ccccc2Cl)o1
[2]
  AC50: 5.29 µM (active)
[6]
  CC50: > 50 µM (active)
